Data published in US10588978B2, “Pharmaceutical composition containing imidazoline derivative” (priority 2016, dated 2020).
Read-outs that look alike come from different tables or passages of the source.

Tests used:
AIPC [1] = conditions: human; cited from earlier work
tumor cell growth = conditions: cited from earlier work
AIPC [2] = conditions: mouse; cited from earlier work
[3] = same dose, same solvent; cited from earlier work
[4] = Studies on stability of the compound; assay type: physicochemical
[5] = mice; relative to MDV-3100; cited from earlier work
[6] = Solubility of the compound in compositions with conventional auxiliaries; assay type: physicochemical
[7] = same dose, same solvent; cited from earlier work; remark: listed apart in the source
[8] = test system: five major subtypes of CYP450; conditions: all five subtypes; read-out: inhibition half lives on five major subtypes of CYP450; cited from earlier work
AR [9] = biological target: T1, AR (Homo sapiens, UniProt P10275); conditions: cited from earlier work
T1 sequence (P10275 1-920): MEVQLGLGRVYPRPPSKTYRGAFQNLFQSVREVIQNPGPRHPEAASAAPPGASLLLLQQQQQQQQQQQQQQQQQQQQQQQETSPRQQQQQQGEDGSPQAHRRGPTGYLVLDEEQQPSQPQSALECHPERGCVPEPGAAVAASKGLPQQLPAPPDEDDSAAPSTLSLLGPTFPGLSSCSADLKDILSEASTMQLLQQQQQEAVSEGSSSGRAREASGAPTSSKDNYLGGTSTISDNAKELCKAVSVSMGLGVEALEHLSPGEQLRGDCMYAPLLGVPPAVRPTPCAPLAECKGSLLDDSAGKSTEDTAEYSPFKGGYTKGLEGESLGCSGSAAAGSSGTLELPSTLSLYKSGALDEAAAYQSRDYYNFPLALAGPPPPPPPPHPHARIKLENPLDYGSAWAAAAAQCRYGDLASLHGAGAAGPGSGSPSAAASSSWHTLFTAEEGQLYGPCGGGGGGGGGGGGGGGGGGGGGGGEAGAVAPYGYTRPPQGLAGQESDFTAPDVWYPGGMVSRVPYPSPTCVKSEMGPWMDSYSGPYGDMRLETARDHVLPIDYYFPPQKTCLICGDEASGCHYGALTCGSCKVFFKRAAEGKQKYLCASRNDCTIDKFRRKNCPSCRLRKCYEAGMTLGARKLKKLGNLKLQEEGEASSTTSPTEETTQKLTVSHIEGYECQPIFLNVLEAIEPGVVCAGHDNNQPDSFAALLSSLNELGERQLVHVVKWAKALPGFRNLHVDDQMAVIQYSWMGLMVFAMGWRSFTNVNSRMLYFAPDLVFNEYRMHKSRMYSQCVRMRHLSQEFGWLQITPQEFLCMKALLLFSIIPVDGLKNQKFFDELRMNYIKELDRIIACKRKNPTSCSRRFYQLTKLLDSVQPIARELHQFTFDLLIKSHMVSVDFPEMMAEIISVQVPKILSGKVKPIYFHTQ

AR [10] = biological target: T1, AR; conditions: cited from earlier work; remark: listed apart in the source

CNC(=O)c1ccc(N2C(=S)N(c3ccc(C#N)c(C(F)(F)F)c3)C(=O)C2(C)C)cc1F [MDV-3100]
inhibition of growth of AIPC (AIPC [1]): can inhibit the growth of AIPC | effect of promoting tumor cell growth (tumor cell growth): no effect of promoting tumor cell growth | inhibition of growth of AIPC (AIPC [2]): can inhibit the growth of AIPC

CC1(C)C(=O)N(c2ccc(C#N)c(C(F)(F)F)c2)C(=S)N1c1ccc(OC[C@@H](O)CO)cc1 [compound of formula (I), (S)-4-(3-(4-(2,3-dihydroxypropoxy)phenyl)-4,4-dimethyl-5-carbonyl-2-thioimidazolin-1-yl)-2-(trifluoromethyl)benzonitrile]
in vivo exposure in dogs relative to MDV-3100 [3]: more than six times that of MDV-3100 | stability of the compound [4]: poor stability | ratio of the drug concentration in brain tissue to the drug concentration in plasma [5]: much lower than that of MDV-3100 | solubility in compositions prepared with conventional auxiliaries [6]: poorly soluble | in vivo exposure in rats relative to MDV-3100 [7]: comparable to that of MDV-3100 | IC50 [8]: > 50 µM | activity in vitro relative to MDV-3100 (AR [9]): slightly better than that of MDV-3100 | AR agonist activity (AR [10]; at 3 μM): no AR agonist activity | AR agonist activity (AR [10]; at 10 μM): no AR agonist activity
